# Laboratory results reported in US9955691B2, “Macrocyclic picolinamides as fungicides” (DOW AGROSCIENCES LLC, priority 2014, dated 2018).
# Test system: Puccinia triticina
# Test: Fungicidal activity: Wheat Brown Rust (PUCCRT)
# Format: in vivo
# Conditions: 24 h, Low Volume (121.5 g/H), 1 Day Protectant, read-out: PUCCRT 1 DP disease control
# Method: (§1) Technical grades of materials were dissolved in acetone, which were then mixed with nine volumes of water containing 110 ppm Triton X-100. The fungicide solutions were applied onto wheat seedlings using an automated booth sprayer to run-off. All sprayed plants were allowed to air dry prior to further handling. All fungicides were evaluated using the aforementioned method for their activity vs. all target diseases, unless stated otherwise. Wheat leaf blotch and brown rust activity were also evaluated using track spray applications, in which case the fungicides were formulated as EC formulations, containing 0.1% Trycol 5941 in the spray solutions. Wheat plants (variety Yuma) were grown from seed in a greenhouse in 50% mineral soil/50% soil-less Metro mix until the first leaf was fully emerged, with 7-10 seedlings per pot. These plants were inoculated with an aqueous spore suspension of Septoria tritici either prior to or after fungicide treatments. After inoculation the plants were kept in 100% relative humidity (one day in a dark dew chamber followed by two to three days in a lighted dew chamber at 20° C.) to permit spores to germinate and infect the leaf. The plants were then transferred to a greenhouse set at 20° C. for disease to develop. When disease symptoms were fully expressed on the 1st leaves of untreated plants, infection levels were assessed on a scale of 0 to 100 percent disease severity. Percent disease control was calculated using the ratio of disease severity on treated plants relative to untreated plants. Evaluation of Fungicidal Activity: Wheat Brown Rust (Puccinia triticina; Synonym: Puccinia recondite f. Sp. Tritici; Bayer Code PUCCRT) Wheat plants (variety Yuma) were grown from seed in a greenhouse in 50% mineral soil/50% soil-less Metro mix until the first leaf was fully emerged, with 7-10 seedlings per pot. These plants were inoculated with an aqueous spore suspension of Puccinia triticina either prior to or after fungicide treatments. After inoculation the plants were kept in a dark dew room at 22° C. with 100% relative humidity overnight to permit spores to germinate and infect the leaf. The plants were then transferred to a greenhouse set at 24° C. for disease to develop. Fungicide formulation, application and disease assessment followed the procedures as described in the Example A.
row,SMILES,pest or weed control at 121.5 g/ha [%]
1,CCOCC(=O)OCOc1c(OC)ccnc1C(=O)N[C@H]1COC[C@H](Cc2ccccc2)[C@@H](CC(C)C)[C@H](C)OC1=O [compound 21],> 70
2,CCOCC(=O)OCOc1c(OC)ccnc1C(=O)N[C@H]1COC[C@H](CCCc2ccccc2)[C@@H](Cc2ccc(OC(F)(F)F)cc2)[C@H](C)OC1=O [compound 77],< 70
3,COc1ccnc(C(=O)N[C@H]2COC[C@H](CCC(C)C)[C@@H](CCc3ccccc3)[C@H](C)OC2=O)c1OCOC(=O)C(C)C [compound 35],> 70
4,COc1ccnc(C(=O)N[C@H]2COC[C@H](Cc3ccc(Cl)cc3)[C@@H](CC(C)C)[C@H](C)OC2=O)c1OC(C)=O [compound 75],> 70
5,CCC[C@H]1COC[C@H](NC(=O)c2nccc(OC)c2OCOC(=O)C(C)C)C(=O)O[C@@H](C)[C@@H]1CC(C)C [compound 65],> 70
6,CCC[C@H]1COC[C@H](NC(=O)c2nccc(OC)c2OC(C)=O)C(=O)O[C@@H](C)[C@@H]1Cc1ccccc1 [compound 22],> 70
7,CCOCC(=O)OCOc1c(OC)ccnc1C(=O)N[C@H]1COC[C@H](Cc2ccccc2)[C@@H](c2ccccc2)[C@H](C)OC1=O [compound 51],> 70
8,COc1ccnc(C(=O)N[C@H]2COC[C@H](Cc3ccc(C(F)(F)F)cc3)[C@@H](Cc3ccccc3)[C@H](C)OC2=O)c1OCOC(C)=O [compound 56],> 70
9,COc1ccnc(C(=O)N[C@H]2COC[C@H](CCC(C)C)[C@@H](CCc3ccccc3)[C@H](C)OC2=O)c1OC(C)=O [compound 33],> 70
10,COc1ccnc(C(=O)N[C@H]2COC[C@H](Cc3ccccc3)[C@@H](CCC(C)C)[C@H](C)OC2=O)c1OC(C)=O [compound 84],> 70
11,CCC[C@H]1COC[C@H](NC(=O)c2nccc(OC)c2OCOC(C)=O)C(=O)O[C@@H](C)[C@@H]1Cc1ccccc1 [compound 23],> 70
12,COc1ccnc(C(=O)N[C@H]2COC[C@H](Cc3ccc(C(F)(F)F)cc3)[C@@H](Cc3ccc(F)cc3)[C@H](C)OC2=O)c1OCOC(C)=O [compound 78],< 70
13,CCOCC(=O)OCOc1c(OC)ccnc1C(=O)N[C@H]1COC[C@H](Cc2ccccc2)[C@@H](Cc2ccccc2)[C@H](C)OC1=O [compound 28],> 70

# Same assay, conditions: 72 h, Low Volume (121.5 g/H), 3 Day Curative, read-out: PUCCRT 3 DC disease control
row,SMILES,pest or weed control at 121.5 g/ha [%]
1,CCOCC(=O)OCOc1c(OC)ccnc1C(=O)N[C@H]1COC[C@H](Cc2ccccc2)[C@@H](CC(C)C)[C@H](C)OC1=O [compound 21],> 70
2,CCOCC(=O)OCOc1c(OC)ccnc1C(=O)N[C@H]1COC[C@H](CCCc2ccccc2)[C@@H](Cc2ccc(OC(F)(F)F)cc2)[C@H](C)OC1=O [compound 77],< 70
3,COc1ccnc(C(=O)N[C@H]2COC[C@H](CCC(C)C)[C@@H](CCc3ccccc3)[C@H](C)OC2=O)c1OCOC(=O)C(C)C [compound 35],> 70
4,COc1ccnc(C(=O)N[C@H]2COC[C@H](Cc3ccc(Cl)cc3)[C@@H](CC(C)C)[C@H](C)OC2=O)c1OC(C)=O [compound 75],< 70
5,CCC[C@H]1COC[C@H](NC(=O)c2nccc(OC)c2OCOC(=O)C(C)C)C(=O)O[C@@H](C)[C@@H]1CC(C)C [compound 65],> 70
6,CCC[C@H]1COC[C@H](NC(=O)c2nccc(OC)c2OC(C)=O)C(=O)O[C@@H](C)[C@@H]1Cc1ccccc1 [compound 22],> 70
7,CCOCC(=O)OCOc1c(OC)ccnc1C(=O)N[C@H]1COC[C@H](Cc2ccccc2)[C@@H](c2ccccc2)[C@H](C)OC1=O [compound 51],< 70
8,COc1ccnc(C(=O)N[C@H]2COC[C@H](Cc3ccc(C(F)(F)F)cc3)[C@@H](Cc3ccccc3)[C@H](C)OC2=O)c1OCOC(C)=O [compound 56],< 70
9,COc1ccnc(C(=O)N[C@H]2COC[C@H](CCC(C)C)[C@@H](CCc3ccccc3)[C@H](C)OC2=O)c1OC(C)=O [compound 33],> 70
10,COc1ccnc(C(=O)N[C@H]2COC[C@H](Cc3ccccc3)[C@@H](CCC(C)C)[C@H](C)OC2=O)c1OC(C)=O [compound 84],> 70
11,CCC[C@H]1COC[C@H](NC(=O)c2nccc(OC)c2OCOC(C)=O)C(=O)O[C@@H](C)[C@@H]1Cc1ccccc1 [compound 23],> 70
12,COc1ccnc(C(=O)N[C@H]2COC[C@H](Cc3ccc(C(F)(F)F)cc3)[C@@H](Cc3ccc(F)cc3)[C@H](C)OC2=O)c1OCOC(C)=O [compound 78],< 70
13,CCOCC(=O)OCOc1c(OC)ccnc1C(=O)N[C@H]1COC[C@H](Cc2ccccc2)[C@@H](Cc2ccccc2)[C@H](C)OC1=O [compound 28],> 70

# Test system: Mycosphaerella graminicola; Anamorph: Septoria tritici
# Test: Fungicidal activity: Leaf Blotch of Wheat (SEPTTR)
# Format: in vivo
# Conditions: Zymoseptoria tritici, 24 h; Low Volume (121.5 g/H), 1 Day Protectant, wheat leaf blotch; read-out: SEPTTR 1 DP disease control
# Method: as §1, with “Evaluation of Fungicidal Activity: Leaf Blotch of Wheat (Mycosphaerella graminicola; Anamorph: Septoria tritici; Bayer Code […]) Technical” for “Technical”, “plants.” for “plants. Evaluation of Fungicidal Activity: Wheat Brown Rust (Puccinia triticina; Synonym: Puccinia recondite f. Sp. Tritici; Bayer Code PUCCRT) Wheat plants (variety Yuma) were grown from seed in a greenhouse in 50% mineral soil/50% soil-less Metro mix until the first leaf was fully emerged, with 7-10 seedlings per pot. These plants were inoculated with an aqueous spore suspension of Puccinia triticina either prior to or after fungicide treatments. After inoculation the plants were kept in a dark dew room at 22° C. with 100% relative humidity overnight to permit spores to germinate and infect the leaf. The plants were then transferred to a greenhouse set at 24° C. for disease to develop. Fungicide formulation, application and disease assessment followed the procedures as described in the Example A.”
row,SMILES,pest or weed control at 121.5 g/ha [%]
1,CCOCC(=O)OCOc1c(OC)ccnc1C(=O)N[C@H]1COC[C@H](Cc2ccccc2)[C@@H](CC(C)C)[C@H](C)OC1=O [compound 21],> 70
2,CCOCC(=O)OCOc1c(OC)ccnc1C(=O)N[C@H]1COC[C@H](CCCc2ccccc2)[C@@H](Cc2ccc(OC(F)(F)F)cc2)[C@H](C)OC1=O [compound 77],< 70
3,COc1ccnc(C(=O)N[C@H]2COC[C@H](CCC(C)C)[C@@H](CCc3ccccc3)[C@H](C)OC2=O)c1OCOC(=O)C(C)C [compound 35],> 70
4,COc1ccnc(C(=O)N[C@H]2COC[C@H](Cc3ccc(Cl)cc3)[C@@H](CC(C)C)[C@H](C)OC2=O)c1OC(C)=O [compound 75],> 70
5,CCC[C@H]1COC[C@H](NC(=O)c2nccc(OC)c2OCOC(=O)C(C)C)C(=O)O[C@@H](C)[C@@H]1CC(C)C [compound 65],> 70
6,CCC[C@H]1COC[C@H](NC(=O)c2nccc(OC)c2OC(C)=O)C(=O)O[C@@H](C)[C@@H]1Cc1ccccc1 [compound 22],> 70
7,CCOCC(=O)OCOc1c(OC)ccnc1C(=O)N[C@H]1COC[C@H](Cc2ccccc2)[C@@H](c2ccccc2)[C@H](C)OC1=O [compound 51],> 70
8,COc1ccnc(C(=O)N[C@H]2COC[C@H](Cc3ccc(C(F)(F)F)cc3)[C@@H](Cc3ccccc3)[C@H](C)OC2=O)c1OCOC(C)=O [compound 56],> 70
9,COc1ccnc(C(=O)N[C@H]2COC[C@H](CCC(C)C)[C@@H](CCc3ccccc3)[C@H](C)OC2=O)c1OC(C)=O [compound 33],> 70
10,COc1ccnc(C(=O)N[C@H]2COC[C@H](Cc3ccccc3)[C@@H](CCC(C)C)[C@H](C)OC2=O)c1OC(C)=O [compound 84],> 70
11,CCC[C@H]1COC[C@H](NC(=O)c2nccc(OC)c2OCOC(C)=O)C(=O)O[C@@H](C)[C@@H]1Cc1ccccc1 [compound 23],> 70
12,COc1ccnc(C(=O)N[C@H]2COC[C@H](Cc3ccc(C(F)(F)F)cc3)[C@@H](Cc3ccc(F)cc3)[C@H](C)OC2=O)c1OCOC(C)=O [compound 78],< 70
13,CCOCC(=O)OCOc1c(OC)ccnc1C(=O)N[C@H]1COC[C@H](Cc2ccccc2)[C@@H](Cc2ccccc2)[C@H](C)OC1=O [compound 28],> 70

# Same assay, conditions: Zymoseptoria tritici, 72 h; Low Volume (121.5 g/H), 3 Day Curative, wheat leaf blotch; read-out: SEPTTR 3 DC disease control
row,SMILES,pest or weed control at 121.5 g/ha [%]
1,CCOCC(=O)OCOc1c(OC)ccnc1C(=O)N[C@H]1COC[C@H](Cc2ccccc2)[C@@H](CC(C)C)[C@H](C)OC1=O [compound 21],> 70
2,CCOCC(=O)OCOc1c(OC)ccnc1C(=O)N[C@H]1COC[C@H](CCCc2ccccc2)[C@@H](Cc2ccc(OC(F)(F)F)cc2)[C@H](C)OC1=O [compound 77],< 70
3,COc1ccnc(C(=O)N[C@H]2COC[C@H](CCC(C)C)[C@@H](CCc3ccccc3)[C@H](C)OC2=O)c1OCOC(=O)C(C)C [compound 35],> 70
4,COc1ccnc(C(=O)N[C@H]2COC[C@H](Cc3ccc(Cl)cc3)[C@@H](CC(C)C)[C@H](C)OC2=O)c1OC(C)=O [compound 75],> 70
5,CCC[C@H]1COC[C@H](NC(=O)c2nccc(OC)c2OCOC(=O)C(C)C)C(=O)O[C@@H](C)[C@@H]1CC(C)C [compound 65],> 70
6,CCC[C@H]1COC[C@H](NC(=O)c2nccc(OC)c2OC(C)=O)C(=O)O[C@@H](C)[C@@H]1Cc1ccccc1 [compound 22],> 70
7,CCOCC(=O)OCOc1c(OC)ccnc1C(=O)N[C@H]1COC[C@H](Cc2ccccc2)[C@@H](c2ccccc2)[C@H](C)OC1=O [compound 51],< 70
8,COc1ccnc(C(=O)N[C@H]2COC[C@H](Cc3ccc(C(F)(F)F)cc3)[C@@H](Cc3ccccc3)[C@H](C)OC2=O)c1OCOC(C)=O [compound 56],< 70
9,COc1ccnc(C(=O)N[C@H]2COC[C@H](CCC(C)C)[C@@H](CCc3ccccc3)[C@H](C)OC2=O)c1OC(C)=O [compound 33],> 70
10,COc1ccnc(C(=O)N[C@H]2COC[C@H](Cc3ccccc3)[C@@H](CCC(C)C)[C@H](C)OC2=O)c1OC(C)=O [compound 84],> 70
11,CCC[C@H]1COC[C@H](NC(=O)c2nccc(OC)c2OCOC(C)=O)C(=O)O[C@@H](C)[C@@H]1Cc1ccccc1 [compound 23],> 70
12,COc1ccnc(C(=O)N[C@H]2COC[C@H](Cc3ccc(C(F)(F)F)cc3)[C@@H](Cc3ccc(F)cc3)[C@H](C)OC2=O)c1OCOC(C)=O [compound 78],< 70
13,CCOCC(=O)OCOc1c(OC)ccnc1C(=O)N[C@H]1COC[C@H](Cc2ccccc2)[C@@H](Cc2ccccc2)[C@H](C)OC1=O [compound 28],> 70
